Measurements as given in patent publication US20100267561A1, “HERBICIDAL PYRIDAZINONE DERIVATIVES” (priority 2007, published 2010).

Experiments:
Format in all cases: in vivo
[1] = tested on: barnyardgrass (Echinochloa crus-galli); test: Test B flooded paddy test plant response
In short: (§1)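 Paddy-water application to 2-leaf plants in pots held under 3 cm of flooding; response is a 0–100 visual control rating against controls after 13 to 15 days, and a dash marks a missing result.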

[2] = tested on: rice (Oryza sativa); test: Test B flooded paddy test plant response
In short: as §1

[3] = tested on: umbrella sedge (Cyperus difformis); test: Test B flooded paddy test plant response
In short: as §1

[4] = tested on: chickweed (Stellaria media); test: Test B postemergence plant response; conditions: for Plant response rating, Chickweed: Postemergence
In short: (§2)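 Postemergence greenhouse test; plants at 2 to 18 cm (1- to 4-leaf stage) given formulated test chemical, held 13 to 15 days, then visually rated against untreated controls on a 0 (no effect) to 100 (complete control) scale; dash means no result.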

[5] = tested on: canarygrass (Phalaris minor); test: Test B postemergence plant response; conditions: for Plant response rating, Canarygrass: Postemergence
In short: as §2

[6] = tested on: winter barley (Hordeum vulgare); test: Test B postemergence plant response; conditions: for Plant response rating, Barley: Postemergence, scale 0 to 100, 0 no effect, 100 complete control
In short: as §2

[7] = tested on: windgrass (Apera spica-venti); test: Test B postemergence plant response; conditions: for Plant response rating, Windgrass: Postemergence
In short: as §2

[8] = tested on: giant foxtail (Setaria faberi); test: Test A pre-/postemergence plant response
In short: (§3)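 Seeds in loam soil/sand blend treated preemergence by directed soil spray, with simultaneous postemergence spray on 2–10 cm plants at one- to two-leaf stage; compounds in non-phytotoxic solvent with surfactant. Injury visually rated versus untreated controls after about 10 days in greenhouse, 0 (no effect) to 100 (complete control).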

[9] = tested on: barnyardgrass (Echinochloa crus-galli); test: Test A pre-/postemergence plant response
In short: as §3

[10] = tested on: large crabgrass (Digitaria sanguinalis); test: Test A pre-/postemergence plant response
In short: as §3

[11] = tested on: velvetleaf (Abutilon theophrasti); test: Test A pre-/postemergence plant response
In short: as §3

[12] = tested on: wheat (Triticum aestivum); test: Test A pre-/postemergence plant response
In short: as §3

[13] = tested on: corn (Zea mays); test: Test A pre-/postemergence plant response
In short: as §3

[14] = tested on: morningglory (Ipomoea coccinea); test: Test A pre-/postemergence plant response
In short: as §3

[15] = Flood (flooded paddy test), 62 g ai/ha, scale 0 to 100, 0 no effect, 100 complete control
[16] = Flood (flooded paddy test), 125 g ai/ha, scale 0 to 100, 0 no effect, 100 complete control
[17] = Flood (flooded paddy test), 250 g ai/ha, scale 0 to 100, 0 no effect, 100 complete control
[18] = Flood, 31 g ai/ha, scale 0 to 100
[19] = 8 g ai/ha, postemergence, 0-100 scale
[20] = 62 g ai/ha, scale 0 to 100, 0 no effect, 100 complete control
[21] = Postemergence, 31 g ai/ha, 0 to 100 scale, 0 no effect, 100 complete control
[22] = Postemergence, 125 g ai/ha, 0 to 100 scale, 0 no effect, 100 complete control
[23] = Preemergence, 31 g ai/ha, 0 to 100 scale, 0 is no effect, 100 is complete control
[24] = Preemergence, 125 g ai/ha, 0 to 100 scale (0 no effect, 100 complete control)

Cn1ncc(O)c(-n2nc(-c3ccc(Cl)cc3)cc2C2CC2)c1=O [Compound 45]
5: Barley plant response rating [6, 19] | Plant response rating, Barley ([6]; 16 g ai/ha) | Plant response rating, Barley ([6]; 31 g ai/ha) | Plant response rating, Barley ([6]; 62 g ai/ha)
80: Plant response rating, Barnyardgrass [9, 21] | Plant response rating, Wheat [12, 24] | Plant response rating, Corn [13, 22]
70: Plant response rating, Wheat [12, 21]
40: Plant response rating, Crabgrass, Large [10, 21] | Plant response rating, Corn [13, 21]
20: Plant response rating, Barnyardgrass [1, 15] | Plant response rating, Barnyardgrass [1, 18]
60: Plant response rating, Barnyardgrass [1, 16] | Plant response rating, Windgrass ([7]; 31 g ai/ha, scale 0 to 100) | Plant response rating, Corn [13, 24]
90: Plant response rating, Foxtail, Giant [8, 21] | Plant response rating, Foxtail, Giant [8, 23] | Plant response rating, Barnyardgrass [9, 23] | Plant response rating, Crabgrass, Large [10, 24] | Plant response rating, Wheat [12, 22]
30: Windgrass plant response rating [7, 19] | Plant response rating, Crabgrass, Large [10, 23]
0: Plant response rating, Rice [2, 15] | Plant response rating, Rice [2, 18] | Plant response rating, Sedge, Umbrella [3, 15] | Plant response rating, Sedge, Umbrella [3, 16] | Plant response rating, Sedge, Umbrella [3, 18] | Chickweed plant response rating [4, 19] | Plant response rating, Chickweed ([4]; 16 g ai/ha, scale 0 to 100) | Plant response rating, Chickweed ([4]; 31 g ai/ha, scale 0 to 100) | Plant response rating, Chickweed [4, 20] | Canarygrass plant response rating [5, 19] | Plant response rating, Canarygrass ([5]; 16 g ai/ha, scale 0 to 100) | Plant response rating, Canarygrass ([5]; 31 g ai/ha, scale 0 to 100) | Plant response rating, Canarygrass [5, 20] | Plant response rating, Velvetleaf [11, 21] | Plant response rating, Velvetleaf [11, 22] | Plant response rating, Velvetleaf [11, 23] | Plant response rating, Velvetleaf [11, 24] | Plant response rating, Corn [13, 23] | Plant response rating, Morningglory [14, 21] | Plant response rating, Morningglory [14, 22] | Plant response rating, Morningglory [14, 23] | Plant response rating, Morningglory [14, 24]
65: Plant response rating, Barnyardgrass [1, 17] | Plant response rating, Sedge, Umbrella [3, 17] | Plant response rating, Windgrass [7, 20]
45: Plant response rating, Rice [2, 16] | Plant response rating, Rice [2, 17]
35: Plant response rating, Windgrass ([7]; 16 g ai/ha, scale 0 to 100)
100: Plant response rating, Foxtail, Giant [8, 22] | Plant response rating, Foxtail, Giant [8, 24] | Plant response rating, Barnyardgrass [9, 22] | Plant response rating, Barnyardgrass [9, 24] | Plant response rating, Crabgrass, Large [10, 22]
50: Plant response rating, Wheat [12, 23]
